Details of data set [1]: method as in Wu and Delamere, 1997. As to conditions: dissociation of the protonated pyridine nitrogen; ref Wu and Delamere, 1997; cited from earlier work.
Data set [2] has as its target T1, doubly truncated TPH1 (ΔNH102-ΔCOOH402) (Homo sapiens, UniProt P17752).
T1 construct: The ΔNH102-ΔCOOH402 human TPH1 gene was cloned; six-His (C); made in house
The experiment in a line: Tryptophan hydroxylase enzymatic activity assay (HPLC quantification of 5-OH-Trp), doubly truncated TPH1. The class given is biochemical.

The target in data set [3] is T2, full-length WT TPH1 (Homo sapiens, UniProt P17752).
T2 construct: made in house
T2 sequence (P17752 1-444): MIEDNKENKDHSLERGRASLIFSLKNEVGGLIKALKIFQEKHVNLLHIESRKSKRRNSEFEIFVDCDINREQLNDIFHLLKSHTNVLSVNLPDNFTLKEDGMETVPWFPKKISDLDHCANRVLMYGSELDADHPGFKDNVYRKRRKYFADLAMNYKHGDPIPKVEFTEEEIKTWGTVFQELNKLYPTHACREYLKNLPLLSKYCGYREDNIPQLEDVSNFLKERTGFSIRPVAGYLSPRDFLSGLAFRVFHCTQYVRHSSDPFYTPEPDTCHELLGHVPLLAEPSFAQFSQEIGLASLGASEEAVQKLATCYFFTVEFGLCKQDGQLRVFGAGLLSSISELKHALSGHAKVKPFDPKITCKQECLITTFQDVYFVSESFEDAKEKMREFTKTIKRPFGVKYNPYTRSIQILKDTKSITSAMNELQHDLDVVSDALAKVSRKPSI
Briefly: Tryptophan hydroxylase enzymatic activity assay, full-length WT TPH1. Format: biochemical. As to conditions: (95% confidence interval). The source says:
The […] human TPH1 gene was cloned into the pET23a vector (six-His C-terminal fusion; Merck KGaA, Darmstadt, Germany) between the NdeI and XhoI restriction sites, and expressed and purified as described previously ([Wang et al., 2002]; [Betari et al., 2020]). Truncated TPH1 was used since the full-length enzyme tends to aggregate in bacteria and yeast extracts and during purification ([Wang et al., 2002]; [McKinney et al., 2005]), resulting in a much lower protein yield compared to the truncated version. Enzymatic activity of truncated TPH1 is equal to that of the full-length protein ([Betari et al., 2020]). […] Full-length WT TPH1 and TPH2 were expressed as N-terminal six-His-maltose-binding protein fusion proteins in pETM-41 and were cleaved and purified as described previously ([McKinney et al., 2004]; [Winge et al., 2007]). Human WT PAH and TH were expressed and isolated as described previously ([[…] et al., 2012]; [Bezem et al., 2016]). […] Control experiments were performed in the presence of 1% DMSO in the absence of ligand. […] 5-hydroxy tryptophan (5-OH-Trp) was quantified using High Performance Liquid Chromatography (HPLC) essentially as described previously with minor modifications ([McKinney et al., 2004]; [[…] et al., 2020]).

In data set [4] the target is T3, WT full-length TPH2 (Homo sapiens, UniProt Q8IWU9).
T3 construct: both the doubly truncated TPH1 protein and WT full-length TPH2 protein; made in house
T3 sequence (Q8IWU9 1-490): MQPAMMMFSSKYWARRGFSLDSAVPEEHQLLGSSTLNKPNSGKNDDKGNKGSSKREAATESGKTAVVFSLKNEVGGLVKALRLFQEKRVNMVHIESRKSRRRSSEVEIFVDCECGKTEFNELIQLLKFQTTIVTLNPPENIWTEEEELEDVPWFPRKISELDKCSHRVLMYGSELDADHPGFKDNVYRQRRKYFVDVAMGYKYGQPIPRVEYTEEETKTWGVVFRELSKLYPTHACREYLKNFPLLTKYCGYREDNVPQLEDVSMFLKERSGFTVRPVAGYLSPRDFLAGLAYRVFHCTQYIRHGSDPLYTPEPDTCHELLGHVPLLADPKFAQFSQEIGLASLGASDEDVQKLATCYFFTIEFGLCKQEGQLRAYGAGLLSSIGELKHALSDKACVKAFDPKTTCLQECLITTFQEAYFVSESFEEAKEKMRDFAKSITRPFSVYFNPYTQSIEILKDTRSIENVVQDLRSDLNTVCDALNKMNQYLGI
Briefly: Tryptophan hydroxylase enzymatic activity assay, WT full-length TPH2. Format: biochemical. As to conditions: mean (95% confidence interval), three experiments in duplicate.

Data set [5] deals with T4, MAO-A (Homo sapiens, UniProt P21397).
T4 construct: purchased BioVision, Inc, Milpitas, CA
T4 sequence (P21397 1-527): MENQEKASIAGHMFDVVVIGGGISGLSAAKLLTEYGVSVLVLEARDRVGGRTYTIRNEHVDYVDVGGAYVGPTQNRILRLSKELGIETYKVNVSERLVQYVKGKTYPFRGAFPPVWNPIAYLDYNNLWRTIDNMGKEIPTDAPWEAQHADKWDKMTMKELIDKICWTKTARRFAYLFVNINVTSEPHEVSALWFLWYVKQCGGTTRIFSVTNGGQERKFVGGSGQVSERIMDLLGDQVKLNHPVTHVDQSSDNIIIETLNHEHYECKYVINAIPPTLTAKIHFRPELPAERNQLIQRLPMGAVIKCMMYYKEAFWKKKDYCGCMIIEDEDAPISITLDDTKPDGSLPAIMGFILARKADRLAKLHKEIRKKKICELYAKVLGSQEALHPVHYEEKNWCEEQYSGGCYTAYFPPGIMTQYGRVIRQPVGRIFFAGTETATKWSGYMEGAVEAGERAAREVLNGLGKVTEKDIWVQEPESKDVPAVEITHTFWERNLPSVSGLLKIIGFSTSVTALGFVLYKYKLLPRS
The experiment in a line: MAO-A enzymatic activity assay (MAO-A Inhibitor Screening Kit, fluorimetric detection of H2O2). As to conditions: 25°C, 15 min kinetic read; mean (95% confidence interval), three experiments. The class given is biochemical. The method, then: The experiments were conducted following the manufacturer’s (BioVision, Inc, Milpitas, CA) instructions and were based on the fluorimetric detection of H2O2, a byproduct of the enzymatic activity of MAO-A, by measuring the fluorescence (Excitation/Emission at 535/587 nm) kinetically at 25°C for 15 min using a Tecan Spark plate reader (Tecan Group Ltd, Männedorf, Switzerland).
Relative inhibition of MAO-A was calculated as a percentage using the following Eq. 2: %Relative inhibition=((Slope of EC−Slope of S)/Slope of EC)×100 (2)
The slopes for all samples, either containing Enzyme Control (EC) or test substance (S), were calculated by dividing the net change in relative fluorescence units (ΔRFU; RFU2–RFU1) by the time interval (Δt; t2 –t1).

Structures are written as SMILES.

Take `COc1ccc2[nH]c([S+]([O-])Cc3ncc(C)c(OC)c3C)nc2c1` (stereo not drawn) [Omeprazole]: in data set [1], the pKa (in general, the pH at which an ionisable group is half protonated) is recorded as 7.1. In data set [2] (100 µM compound, preliminary activity assay), the “reduction of TPH1 activity” value is “more than 50%”. The IC50 (in general, the concentration that inhibits the measured activity by half) was 3.09 µM in data set [2] (doubly truncated TPH1, 20 µM L-Trp, 200 µM BH4, 37°C, mean (95% confidence interval), three experiments in duplicate); 3.55 µM in data set [3]; 4.3 µM in data set [4]; 89.4 µM in data set [5].

The values are drawn from publication PMC7726444 (Frontiers in Pharmacology, 2020).
